# Measured values reported in PMC6792352, “Limited Chemical Structural Diversity Found to Modulate Thyroid Hormone Receptor in the Tox21 Chemical Library” (Environmental Health Perspectives, 2019).
# Structures can show the parent of a compound that is named as a salt.
# Experiment: in vitro
# Conditions: rat, gh3-tre-luc cells, AC50 (uM) modified / 1000
row,SMILES,CC50 at 24 h [µM]
1,C1CCN2C[C@@H]3C[C@@H](CN4CCCC[C@@H]34)[C@H]2C1 [Sparteine],> 20
2,CO[C@@]1(NC(=O)CSC(F)F)C(=O)N2C(C(=O)O)=C(CSc3nnnn3CCO)CO[C@@H]21 [Flomoxef],> 50
3,Cn1c(CCCC(=O)O)nc2cc(N(CCCl)CCCl)ccc21 [Bendamustine],> 50
4,C=C1[C@@H]2CC[C@@H](C2)C1(C)C [Camphene],> 90
5,"Cc1ccc(C)c2ccccc12 [1,4-Dimethylnaphthalene]",> 90
6,"c1ccc2c(c1)CCNC2 [1,2,3,4-Tetrahydroisoquinoline]",> 90
7,CC(C)=CCC/C(C)=C/CC/C(C)=C/CCC(=O)OC/C=C(\C)CCC=C(C)C [Gefarnate],> 50
8,COC(=O)/C=C/c1ccccc1 [Methyl (E)-cinnamate],> 90
9,C=C(C)c1ccccc1 [alpha-Methylstyrene],> 90
10,Brc1ccc(-c2ccccc2)cc1 [4-Bromobiphenyl],> 90
11,CC(=O)N(CC(O)CO)c1c(I)c(C(=O)NCCO)c(I)c(C(=O)NCC(O)CO)c1I (centres unmarked) [Ioxilan],> 50
12,NCCNCCO [N-(Hydroxyethyl)ethylenediamine],> 90
13,Cc1nc(C)c(Cl)c(O)c1Cl [Clopidol],> 50
14,CCCCCCCCCCCCCCCCCCOCCO [Polyethylene glycol stearyl ether],> 20
15,"O=C(c1ccc(O)cc1)c1ccc(O)cc1 [4,4'-Dihydoxybenzophenone]",> 90
16,CC(C)(C)c1ccc(S)cc1 [4-tert-Butylbenzenethiol],> 90
17,Cc1cc(C)cc(C(=O)OC2C[C@H]3CC[C@@H](C2)N3C)c1 (some centres unmarked),22.4
18,CCCCC(CC)C(=O)OCCOCCOCCOC(=O)C(CC)CCCC (centres unmarked) [Triethylene glycol bis(2-ethylhexanoate)],> 90
19,"Cc1cc(O)c(Cl)cc1C [2-Chloro-4,5-dimethylphenol]",> 90
20,N[C@@H]1CN(c2c(F)cc3c(=O)c(C(=O)O)cn([C@@H]4C[C@@H]4F)c3c2Cl)CC12CC2 [Sitafloxacin],> 50
21,"CC(C)(CC(=O)O)C(=O)O [2,2-Dimethylbutanedioic acid]",> 90
22,CCOC(=O)Nc1ccc(NCc2ccc(F)cc2)nc1N [Flupirtine maleate],> 50
23,CCN(CC)CCOC(=O)C(c1ccccc1)C1CCCCC1 (centres unmarked) [Drofenine hydrochloride],21.1

row,SMILES,CC50 at 24 h [µM]
1,NC[C@H]1CC[C@H](C(=O)O)CC1 [Tranexamic acid],> 20
2,CCOC(=O)[C@H](CCc1ccccc1)N[C@@H](C)C(=O)N1C(=O)N(C)C[C@H]1C(=O)O [Imidapril hydrochloride],> 50
3,COc1ccc(CCC(C)=O)cc1 [4-(4-Methoxyphenyl)-2-butanone],> 90
4,"COc1ccc(OC)c(Cl)c1 [2-Chloro-1,4-dimethoxybenzene]",> 90
5,O=C(/C=C/c1ccc(O)c(O)c1)O[C@@H](C(=O)O)[C@@H](OC(=O)/C=C/c1ccc(O)c(O)c1)C(=O)O [L-Cichoric acid],> 90
6,CCCC/C=C/CCCCO [(E)-5-Decen-1-ol],> 90
7,O=S(=O)(O)c1ccc(O)cc1 [Sodium 4-hydroxybenzenesulfonate],> 90
8,CCCCOC(=O)c1ccccc1C(=O)OCC(CC)CCCC (centres unmarked) [Butyl 2-ethylhexyl phthalate],> 90
9,"CCC1(CO)COCOC1 [(5-Ethyl-1,3-dioxan-5-yl)methanol]",> 90
10,CCOC(=O)CCC(=O)O[C@H]1[C@H](O[C@@H]2[C@@H](C)[C@H](O[C@H]3C[C@@](C)(OC)[C@@H](O)[C@H](C)O3)[C@@H](C)C(=O)O[C@H](CC)[C@@](C)(O)[C@H](O)[C@@H](C)C(=O)[C@H](C)C[C@@]2(C)O)O[C@H](C)C[C@@H]1N(C)C [Erythromycin ethylsuccinate],> 50
11,NS(=O)(=O)C(F)(F)C(F)(F)C(F)(F)C(F)(F)C(F)(F)C(F)(F)C(F)(F)C(F)(F)F [Perfluorooctanesulfonamide],52.8
12,Clc1ccc2[nH]nnc2c1 [5-Chlorobenzotriazole],> 90
13,"CC(=O)CC(=O)N(C)C [N,N-Dimethylacetoacetamide]",> 90
14,CSSc1ccoc1C [Methyl 2-methyl-3-furyl disulfide],> 80
15,CCOC(=O)COc1ccc2c(=O)cc(-c3ccccc3)oc2c1 [Efloxate],> 50
16,O=CNC(N1CCN(C(NC=O)C(Cl)(Cl)Cl)CC1)C(Cl)(Cl)Cl (centres unmarked) [Triforine],> 90
17,CC(=O)OCC[N+](C)(C)C [Acetylcholine chloride],> 50
18,CCCCC(F)(F)[C@@]1(O)CC[C@H]2[C@@H](CC(=O)[C@@H]2CCCCCCC(=O)O)O1 [Lubiprostone],> 50
19,"Nc1cccc(N)n1 [2,6-Diaminopyridine]",> 90
20,"COCc1ccc(COC)cc1 [1,4-Bis(methoxymethyl)benzene]",> 90
21,CCCCCCOC(=O)C(C)C [Hexyl isobutyrate],> 90
22,CCCCCCCCCCCCCCBr [1-Bromotetradecane],> 100
23,Nc1ccc(S(=O)(=O)Nc2ccnn2-c2ccccc2)cc1 [Sulfaphenazole],> 20

row,SMILES,CC50 at 24 h [µM]
1,Cc1ccc(C(=O)C(C)CN2CCCCC2)cc1 (centres unmarked) [Tolperisone hydrochloride],> 50
2,"CC1=CC(=O)CC(C)(C)C1=O [2,6,6-Trimethyl-2-cyclohexene-1,4-dione]",> 90
3,SC1CCCC1 [Cyclopentanethiol],> 90
4,Cc1ccc(O)c([N+](=O)[O-])c1 [4-Methyl-2-nitrophenol],> 90
5,CCOC(=O)C(C)(C)Oc1ccc(Cl)cc1 [Clofibrate],> 90
6,Cc1cc(NC(=O)C(=O)O)cc(C)c1Oc1ccc(O)c2c1CCC2 [CP-634384],> 90
7,CN(CCO)CC(O)Cn1cnc2c1c(=O)n(C)c(=O)n2C (centres unmarked) [Xanthinol niacinate],> 50
8,"Cc1ccc(N)cc1C [3,4-Dimethylaniline]",> 90
9,CCNc1nc(NC(C)C)nc(OC)n1 [Atraton],> 90
10,"O=S(=O)(O)c1cccc2c(S(=O)(=O)O)cccc12 [1,5-Naphthalenedisulfonic acid, disodium salt hydrate]",> 90
11,Cn1cc(C(=O)[C@@H]2CCc3nc[nH]c3C2)c2ccccc21 [Ramosetron hydrochloride],> 50
12,"CC(=O)CC/C=C(\C)CCC=C(C)C [6,10-Dimethyl-5,9-undecadiene-2-one]",> 90
13,O=C1c2ccccc2Cc2ccccc21 [Anthrone],13.5
14,NC(=O)[C@H]1O[C@@H](O)[C@H](O)[C@@H](O)[C@@H]1O [Glucuronamide],> 50
15,"Cc1cccc(C)c1N [2,6-Dimethylaniline]",> 90
16,Cc1cccc(C)c1NC(=O)C(C)N (centres unmarked) [Tocainide hydrochloride],> 20
17,CCCCCNC(=N)N/N=C/c1c[nH]c2ccc(OC)cc12 [Tegaserod],> 50
18,N#Cc1c[nH]cc1-c1cccc2c1OC(F)(F)O2 [Fludioxonil],35.9
19,CC(C)(C)C(=O)C(Oc1ccc(Cl)cc1)n1ccnc1 (centres unmarked) [Climbazole],> 50
20,Nc1ccc2ccccc2c1S(=O)(=O)O [2-Amino-1-naphthalenesulfonic acid],> 90
21,O=[N+]([O-])c1ccc(NCCO)c(OCCO)c1 [HC Yellow 4],58.6
22,Cc1cccc(N(C)C(=S)Oc2ccc3c(c2)CCC3)c1 [Tolindate],> 50

# Same assay, conditions: rat, gh3-tre-luc cells, AC50 (uM) modified / 1000, Tox21_110001=Tox21_110993; viability, 1 nM T3 present, 24 h
row,SMILES,CC50 at 24 h [µM]
1,COP(=S)(OC)SCN1C(=O)c2ccccc2C1=O [Phosmet],> 50

# Same assay, conditions: rat, gh3-tre-luc cells, AC50 (uM) modified / 1000, Tox21_110001=Tox21_111576; viability, 1 nM T3 present, 24 h
row,SMILES,CC50 at 24 h [µM]
1,C[C@]12C=CC(=O)C=C1CC[C@@H]1[C@@H]2CC[C@]2(C)OC(=O)CC[C@@H]12 [Testolactone],> 50

# Same assay, conditions: rat, gh3-tre-luc cells, AC50 (uM) modified / 1000, Tox21_110001=Tox21_112111; viability, 1 nM T3 present, 24 h
row,SMILES,CC50 at 24 h [µM]
1,C[C@]12CCC(=O)C(O)=C1CC[C@@H]1[C@@H]2CC[C@]2(C)C(=O)CC[C@@H]12 [4-Hydroxyandrostenedione],> 50

# Same assay, conditions: rat, gh3-tre-luc cells, AC50 (uM) modified / 1000, Tox21_110001=Tox21_200517; viability, 1 nM T3 present, 24 h
row,SMILES,CC50 at 24 h [µM]
1,Cc1ccc(N)cc1 [4-Methylaniline hydrochloride],> 90

# Same assay, conditions: rat, gh3-tre-luc cells, AC50 (uM) modified / 1000, Tox21_110001=Tox21_200633; viability, 1 nM T3 present, 24 h
row,SMILES,CC50 at 24 h [µM]
1,CCC(C)Br (centres unmarked) [2-Bromobutane],> 100

# Same assay, conditions: rat, gh3-tre-luc cells, AC50 (uM) modified / 1000, Tox21_110001=Tox21_201652; viability, 1 nM T3 present, 24 h
row,SMILES,CC50 at 24 h [µM]
1,O=C1C(Cl)=C(Cl)C(=O)c2ccccc21 [Dichlone],31.4

# Same assay, conditions: rat, gh3-tre-luc cells, AC50 (uM) modified / 1000, Tox21_110001=Tox21_202316; viability, 1 nM T3 present, 24 h
row,SMILES,CC50 at 24 h [µM]
1,COP(=S)(OC)SCN1C(=O)c2ccccc2C1=O [Phosmet],> 90

# Same assay, conditions: rat, gh3-tre-luc cells, AC50 (uM) modified / 1000, Tox21_110001=Tox21_301204; viability, 1 nM T3 present, 24 h
row,SMILES,CC50 at 24 h [µM]
1,NNCCO [2-Hydroxyethylhydrazine],> 90

# Same assay, conditions: rat, gh3-tre-luc cells, AC50 (uM) modified / 1000, Tox21_110001=Tox21_302247; viability, 1 nM T3 present, 24 h
row,SMILES,CC50 at 24 h [µM]
1,CCC(Br)(CC)C(=O)NC(N)=O [Carbromal],> 90

# Same assay, conditions: rat, gh3-tre-luc cells, AC50 (uM) modified / 1000, Tox21_110001=Tox21_302286; viability, 1 nM T3 present, 24 h
row,SMILES,CC50 at 24 h [µM]
1,C[C@]12CCC(=O)C(O)=C1CC[C@@H]1[C@@H]2CC[C@]2(C)C(=O)CC[C@@H]12 [4-Hydroxyandrostenedione],> 90

# Same assay, conditions: rat, gh3-tre-luc cells, AC50 (uM) modified / 1000, Tox21_110001=Tox21_303031; viability, 1 nM T3 present, 24 h
row,SMILES,CC50 at 24 h [µM]
1,O=C1C(Cl)=C(Cl)C(=O)c2ccccc21 [Dichlone],7.73

# Same assay, conditions: rat, gh3-tre-luc cells, AC50 (uM) modified / 1000, Tox21_110001=Tox21_400063; viability, 1 nM T3 present, 24 h
row,SMILES,CC50 at 24 h [µM]
1,c1cc2ccc3cccc4ccc(c1)c2c34 [Pyrene],> 100
